Where two headings read alike, the source gives them in different places.
Key:
rat hepatocytes = experiment: Cytotoxicity assay, chromium-51 leakage from monolayer cultures; assay type: cell-based; conditions: rat hepatocyte monolayers, 0.012M test material, mean +/- SD, n=5; control 37.61+/-1.56%
Method: Activities of supernatants and cells were measured. Chromium-51 leakage is expressed as a percentage of the total activity (medium+cells). Values are mean +/− SD [n=5]. *=P<0.001 CL(CBZ)/CL(CBZ)-Dox and a control (no material added after incubation with chromium-51).

HepG2 cells = experiment: In vitro toxicity test by in situ end labelling (ISEL), % of dead cells; assay type: cell-based; conditions: 4 h incubation
Method: Cholyl-lysyl-doxorubicin (VIII) synthesised as described above was subjected to cytotoxicity tests in comparison with free doxorubicin and free cholate using in situ end labelling which enables semi-quantitative measure of apoptosis and necrosis.
HepG2 cells (Cobra American Type Culture Collection) in 24 well plates were used. Doxorubicin, cholate or cholyllysyldoxorubicin (in various amounts up to 0.86 μM) was added in triplicate and incubated for 4 h. The cells were trypsinized off from the well plates, cytospun, and then frozen.
In order to measure cell viability, sections were warmed up to room temperature for 30 minutes, then fixed in acetone for 10 minutes, and then wax was introduced around cells.
An in situ end labelling (ISEL) positive mixture was made up which included buffer (1 ml), dATP (1 μl), dCTP (1 μl), dGTP (1 μl), DiglldUTP (1 μl) and Klenow DNA polymerase (4 μl), and an in situ end labelling negative mixture of buffer (1 ml), dATP (1 μl), dCTP (1 μl), dGTP (1 μl), Digll, 2dUTP and water. (4 μl) was also made up. To each cytospin and coverslip was added 60 μl of the ISEL positive mixture or negative mixture. These were then floated in a water bath at 37° C. for 1 h. The coverslips were then removed and washed 3×5 mins in distilled water, followed by washing in TBS pH 7.5 for 5 mins. Anti digoxigen Alkaline phosphatase diluted 1:200 TBS was added and incubated for 1 h at room temperature and then washed in TBS pH 7.5 for 2.5 mins, followed by further washing in TBS pH 8.2 for another 2.5 mins. A substrate mixture was then made up to include naphthol phosphate (10 mg), NN-dimethylformamide (1 ml), Tris pH 8.2 (49) IM Levamasole (50 μl) and Fast blue (50 mg).
The substrate mixture was added to each cytospin and allowed to develop for 15 mins followed by washing in distilled water and then mounted.

[1] = tested on: 12 human tumour cell lines; experiment: Antiproliferative activity in vitro, propidium iodide DNA content; assay type: cell-based; conditions: for mean IC70: mean over 12 human tumour cell lines, 4 days continuous exposure
Method: Cholyl-lysyl-doxorubicin (VIII) was investigated for antiproliferative activity in vitro in 12 human tumour cell lines (including the large cell lung carcinoma H460, the mammary carcinoma cell line MCF7, the uterus carcinoma cell line UXF 1138L and the large cell lung carcinoma LXFL 529L), and was compared to free doxorubicin and cholic acid as controls. 5-20.000 cells/well were plated into 96 wells. After 24 hours, the compounds were added in dose levels ranging from 3 nM to 30 μM (cholyl-lysyl-doxorubicin and cholic acid) and from 0.3 nM to 3 μM (doxorubicin), respectively.

Solubility in solvents = assay type: physicochemical
[2] = for Cumulative biliary excretion, Mean % Dose: Wistar rats; for Biliary excretion, mean % of radioactivity in the dose administered: bolus via jugular vein, 14C-Dox 1 mg/300 μl or 14C-Cpd VIII 2 mg/300 μl, n=6
[3] = Percentage of dose in liver, heart, urine and blood at 60 min
Method: Further tests were performed to estimate the percentage of the dose of the compounds being tested in the liver, heart, urine and blood of Wistar rats.

[4] = Wistar rats, 60 min after injection

| SMILES | Chromium-51 leakage as a percentage of the total activity (medium+cells) (rat hepatocytes) | Mean % of dead cells (HepG2 cells; 0.03 μM) [%] | Mean % of dead cells (HepG2 cells; 0.06 μM) [%] | Mean % of dead cells (HepG2 cells; 0.12 μM) [%] | Mean % of dead cells (HepG2 cells; 0.86 μM) [%] | Mean % of dead cells (HepG2 cells; 0.45 μM) [%] | mean IC70 [1] [nM] | Cumulative biliary excretion, Mean % Dose ([2]; cumulative to 0 min) [% Dose] | Cumulative biliary excretion, Mean % Dose ([2]; cumulative to 10 min) [% Dose] | Cumulative biliary excretion, Mean % Dose ([2]; cumulative to 20 min) [% Dose] | Cumulative biliary excretion, Mean % Dose ([2]; cumulative to 30 min) [% Dose] | Cumulative biliary excretion, Mean % Dose ([2]; cumulative to 40 min) [% Dose] | Cumulative biliary excretion, Mean % Dose ([2]; cumulative to 50 min) [% Dose] | Cumulative biliary excretion, Mean % Dose ([2]; cumulative to 60 min) [% Dose] | Biliary excretion, mean % of radioactivity in the dose administered ([2]; bile aliquot at 10 min) [%] | Biliary excretion, mean % of radioactivity in the dose administered ([2]; bile aliquot at 20 min) [%] | Biliary excretion, mean % of radioactivity in the dose administered ([2]; bile aliquot at 30 min) [%] | Biliary excretion, mean % of radioactivity in the dose administered ([2]; bile aliquot at 40 min) [%] | Biliary excretion, mean % of radioactivity in the dose administered ([2]; bile aliquot at 50 min) [%] | Biliary excretion, mean % of radioactivity in the dose administered ([2]; bile aliquot at 60 min) [%] | further results |
| --- | --- | --- | --- | --- | --- | --- | --- | --- | --- | --- | --- | --- | --- | --- | --- | --- | --- | --- | --- | --- | --- |
| CC(CCC(=O)NC(CCCCNC(=O)OCc1ccccc1)C(=O)O)C1CCC2C3C(O)CC4CC(O)CCC4(C)C3CC(O)C12C (centres unmarked) [CL(CBZ), Cholyllsine-N-ε-CBZ] | 49.01+/−2.57% | – | – | – | – | – | – | – | – | – | – | – | – | – | – | – | – | – | – | – | – |
| COc1cccc2c1C(=O)c1c(O)c3c(c(O)c1C2=O)CC(O)(C(=O)CO)CC3OC1CC(NC(=O)C(CCCCNC(=O)OCc2ccccc2)NC(=O)CCC(C)C2CCC3C4C(O)CC5CC(O)CCC5(C)C4CC(O)C23C)C(O)C(C)O1 (centres unmarked) [CL(CBZ)-Dox, CholyllysylCBZDoxorubicin] | 36.45+/−3.77% | – | – | – | – | – | – | – | – | – | – | – | – | – | – | – | – | – | – | – | – |
| C[C@H](CCC(=O)O)[C@H]1CC[C@H]2[C@@H]3[C@H](O)C[C@@H]4C[C@H](O)CC[C@]4(C)[C@H]3C[C@H](O)[C@]12C [Cholate, cholic acid] | – | 1 | 0 | 1.8 | 1 | – | – | – | – | – | – | – | – | – | – | – | – | – | – | – | antitumour activity in vitro ([1]; 12 human tumour cell lines, 3 nM to 30 μM, 4 days exposure): no antitumour activity |
| COc1cccc2c1C(=O)c1c(O)c3c(c(O)c1C2=O)C[C@@](O)(C(=O)CO)C[C@@H]3O[C@H]1C[C@H](NC(=O)[C@H](CCCCN)NC(=O)CC[C@@H](C)[C@H]2CC[C@H]3[C@@H]4[C@H](O)C[C@@H]5C[C@H](O)CC[C@]5(C)[C@H]4C[C@H](O)[C@]23C)[C@H](O)[C@H](C)O1 [Compound (VIII), Cholyl-Lysyl-Doxorubicin] | – | 7.6 | 10.8 | 20.5 | 96.6 | 49 | 1300 | 0 | 41.7 | 61.7 | 69.7 | 75.3 | 79.3 | 81.8 | 41.7 | 20 | 8 | 5.6 | 4 | 2.5 | Mean % of dead cells (HepG2 cells; 0.00 μM): 3.3%; Solubility in non-polar solvents (Solubility in solvents; non-polar solvents such as ethoxyethane): insoluble; Solubility in water, methanol and ethanol (Solubility in solvents; water, methanol and ethanol): soluble; Biliary excretion, mean % of radioactivity in the dose administered ([2]; time 0 min): 0%; Percentage of dose at 60 min, Mean % dose, Blood ([3]; Wistar rats, blood, 60 min after injection): 8.9 % dose; Percentage of dose at 60 min, Mean % dose, Heart ([3]; Wistar rats, heart, 60 min after injection): 0 % dose; Percentage of dose at 60 min, Mean % dose, Liver ([3]; Wistar rats, liver, 60 min after injection): 14.7 % dose; Percentage of dose at 60 min, Mean % dose, Total ([3]; Wistar rats, sum of liver, heart, urine and blood, 60 min): 25.8 % dose; Percentage of dose at 60 min, Mean % dose, Urine [3, 4]: 2.2 % dose |
| COc1cccc2c1C(=O)c1c(O)c3c(c(O)c1C2=O)C[C@@](O)(C(=O)CO)C[C@@H]3O[C@H]1C[C@H](N)[C@H](O)[C@H](C)O1 [Doxorubicin, doxorubicin] | – | 9.4 | 14.9 | 28.9 | 100 | 50 | 700 | 0 | 2.3 | 7 | 9.6 | 11.7 | 12.7 | 13.5 | 2.3 | 4.7 | 2.6 | 2.4 | 1 | 0.8 | Biliary excretion, mean % of radioactivity in the dose administered ([2]; time 0 min): 0%; Percentage of dose at 60 min, Mean % dose, Urine [3, 4]: 4 % dose; Percentage of dose at 60 min, Mean % dose, Blood ([3]; Wistar, rat, in vivo, 60 min): 74.7 % dose; Percentage of dose at 60 min, Mean % dose, Heart ([3]; Wistar, rat, in vivo, 60 min): 10.8 % dose; Percentage of dose at 60 min, Mean % dose, Liver ([3]; Wistar, rat, in vivo, 60 min): 1.9 % dose |

From patent US20040053896A1, “Pharmaceutically active compound” (priority 2000, published 2004)
